The text below walks through data of PubChem BioAssay (NCI).

Some test systems named below: ACHN renal; OVCAR-4 ovarian; K-562 leukemia; UACC-62 melanoma; HOP-62 NSCLC; HS 578T breast; OVCAR-5 ovarian; SF-539 CNS; CCRF-CEM leukemia; SK-MEL-2 melanoma.
What all share (experiment): growth of human tumour cells (NCI), 48 h

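Dose response: 5 concentrations. Exposure: 48 h. Format: 96-well plates. Endpoint: linear interpolation; highest concentration if not reached. Abbreviation: GI50, concentration required for 50% inhibition of growth. The concentration for full growth arrest is given as TGI.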

For `Cc1cnc2[nH]c(-c3cccc(F)c3)cc(=O)c2c1`, the TGI is > 100 µM with ACHN renal; > 100 µM with OVCAR-4 ovarian; > 100 µM with K-562 leukemia; > 100 µM in the assay on UACC-62 melanoma; > 100 µM in the assay with HOP-62 NSCLC; 0.0448 µM in the assay on HS 578T breast. Moreover, the TGI in the assay with OVCAR-5 ovarian is > 100 µM; in the assay on SF-539 CNS, 0.263 µM.
With `CC(C)=CCC12Cc3ccc(O)cc3C(C(C)CN1)C2C` (stereo not drawn), the TGI in the assay on ACHN renal, in the assay with OVCAR-4 ovarian, in the assay on K-562 leukemia, in the assay with UACC-62 melanoma, with HOP-62 NSCLC and in the assay on HS 578T breast was > 100 µM each time. The TGI with OVCAR-5 ovarian, with CCRF-CEM leukemia and in the assay with SF-539 CNS was > 100 µM each time.
Regarding `O=c1[nH]c(=O)n(C2CC(O)C(CO)O2)cc1OC/C=C/Cc1ccccc1` (stereo not drawn), the TGI in the assay with ACHN renal, in the assay with OVCAR-4 ovarian, in the assay on K-562 leukemia, in the assay on UACC-62 melanoma, in the assay on HOP-62 NSCLC and with HS 578T breast was > 100 µM throughout. Further, the TGI with OVCAR-5 ovarian and in the assay with CCRF-CEM leukemia was > 100 µM throughout.
As for `c1c(N2CCOCC2)ssc1=[N+]1CCOCC1`, the TGI in the assay with ACHN renal, with OVCAR-4 ovarian, in the assay on SK-MEL-2 melanoma, with K-562 leukemia, in the assay on UACC-62 melanoma and with HOP-62 NSCLC was > 100 µM each time. Also, the TGI in the assay on OVCAR-5 ovarian, in the assay with CCRF-CEM leukemia and with SF-539 CNS was > 100 µM in each case.
For the molecule `Cc1ccc2c(c1C)CC1(Cc3c(C)ccc(C)c3C1=O)C2=O` (stereo not drawn), the TGI in the assay with ACHN renal, in the assay with OVCAR-4 ovarian, with K-562 leukemia, in the assay on UACC-62 melanoma, in the assay with HS 578T breast and in the assay on OVCAR-5 ovarian was > 100 µM in each case. For the same molecule, the TGI in the assay on CCRF-CEM leukemia and in the assay with SF-539 CNS was > 100 µM each time.
`CC1CCc2sc3nc4n(c(=O)c3c2C1)CC(C)S4` (stereo not drawn): the TGI was 62.2 µM in the assay with ACHN renal; > 100 µM in the assay with OVCAR-4 ovarian; 41.1 µM in the assay on SK-MEL-2 melanoma; > 100 µM in the assay on K-562 leukemia; 38.7 µM in the assay with UACC-62 melanoma; > 100 µM in the assay on HOP-62 NSCLC. Besides, the TGI with HS 578T breast was > 100 µM; with OVCAR-5 ovarian, 92.7 µM.
Regarding `COCC#C[C@@]1(O)CCCCC1CC(OC)OC` (stereo partly drawn), the TGI with ACHN renal, in the assay with OVCAR-4 ovarian, in the assay on SK-MEL-2 melanoma, in the assay on K-562 leukemia, in the assay on UACC-62 melanoma and in the assay on HOP-62 NSCLC was > 100 µM each time. The TGI in the assay on HS 578T breast, with OVCAR-5 ovarian and with CCRF-CEM leukemia was > 100 µM in each case.
Take `COC(=O)C1=C(C(=O)OC)SC(=C2SC3=C(SC(=C4SCCS4)S3)S2)S1`: the TGI in the assay with ACHN renal, in the assay on SK-MEL-2 melanoma, with K-562 leukemia, in the assay with UACC-62 melanoma, in the assay with HOP-62 NSCLC and with HS 578T breast was > 100 µM each time. The TGI with OVCAR-5 ovarian and in the assay on CCRF-CEM leukemia was > 100 µM each time.
Consider `O=C1NC(=S)NC(=O)C1C(c1ccc(Cl)cc1)C1C(=O)NC(=S)NC1=O`, for which the TGI in the assay on ACHN renal, in the assay with OVCAR-4 ovarian, with SK-MEL-2 melanoma, with K-562 leukemia, in the assay with UACC-62 melanoma and with HOP-62 NSCLC was > 100 µM throughout. The TGI in the assay on OVCAR-5 ovarian and in the assay on CCRF-CEM leukemia was > 100 µM in each case.
On to `CCN1CCN(Cc2ccc(NC(=O)Nc3ccc(-n4ccc5c(NC(=O)c6ccccc6)nccc54)cc3)cc2C(F)(F)F)CC1`, for which the GI50 with ACHN renal was 0.907 µM; in the assay with SK-MEL-2 melanoma, 3.62 µM; in the assay with K-562 leukemia, 0.0653 µM; in the assay with CCRF-CEM leukemia, 0.426 µM. Further, the TGI is 2.11 µM in the assay with ACHN renal, > 100 µM with SK-MEL-2 melanoma, 1.52 µM in the assay with K-562 leukemia and > 100 µM in the assay with CCRF-CEM leukemia.
Consider `C=C1C[C@@H]2CC[C@@]34C[C@H]5O[C@H]6[C@@H](O3)[C@H]3O[C@H](CC[C@@H]3O[C@H]6[C@H]5O4)CC(=O)C[C@@H]3[C@@H](OC)[C@@H](C[C@H](O)CN)O[C@H]3C[C@H]3O[C@@H](CC[C@@H]1O2)C[C@@H](C)C3=C`, for which the TGI is > 1 µM with ACHN renal; > 1 µM with OVCAR-4 ovarian; > 0.167 µM in the assay on SK-MEL-2 melanoma; > 1 µM in the assay with K-562 leukemia; > 1 µM in the assay on UACC-62 melanoma; > 1 µM in the assay on HOP-62 NSCLC. Also, the TGI in the assay on HS 578T breast is > 0.187 µM; in the assay on OVCAR-5 ovarian it was > 1 µM; in the assay on SF-539 CNS it was 0.00215 µM. Further, in the assay on OVCAR-5 ovarian, the GI50 is 0.00251 µM.
`Clc1ccc(OCc2nnc(COc3ccc(OCc4nnc(COc5ccc(Cl)cc5Cl)o4)c(Cl)c3)o2)c(Cl)c1`: the TGI in the assay on ACHN renal is > 100 µM; in the assay on SK-MEL-2 melanoma it was > 100 µM; in the assay with K-562 leukemia it was 53.3 µM; in the assay with UACC-62 melanoma, > 100 µM; in the assay on HOP-62 NSCLC, > 100 µM; with HS 578T breast it was > 100 µM. For the same molecule, the TGI in the assay with OVCAR-5 ovarian was > 100 µM; in the assay with CCRF-CEM leukemia it was 38.5 µM.
For the molecule `COc1cc2[nH]c(=O)c3cc(-c4ccccc4)cc4c(Cl)nc(c1OC)c2c43`, the TGI in the assay with ACHN renal is 77.6 µM; in the assay with OVCAR-4 ovarian, > 64.4 µM; in the assay with SK-MEL-2 melanoma it was 38.7 µM; with K-562 leukemia, > 100 µM; in the assay with UACC-62 melanoma it was 34.6 µM; in the assay on HOP-62 NSCLC, > 72.7 µM. In addition, the figures for the TGI in the assay with HS 578T breast, in the assay on OVCAR-5 ovarian and in the assay on CCRF-CEM leukemia were > 100 µM, > 100 µM and > 67 µM, respectively.
For `CC(=O)OC1CC2(O)C(CCC3(C)C(c4ccc(=O)oc4)CCC32O)C2(C)C1=CC(O)C1OC12` (stereo not drawn), the TGI in the assay with OVCAR-4 ovarian worked out at 0.121 µM; in the assay on SK-MEL-2 melanoma, 0.222 µM; in the assay with K-562 leukemia, 0.381 µM; in the assay on UACC-62 melanoma it was 0.117 µM; in the assay with HOP-62 NSCLC, 0.172 µM; in the assay with OVCAR-5 ovarian, 0.772 µM. Also, the figures for the TGI in the assay on CCRF-CEM leukemia and in the assay on SF-539 CNS were 0.487 µM and 0.116 µM, respectively.
